Measured values taken from paper PMC8063026 (Frontiers in Pharmacology, 2021).
Where two headings read alike, the source gives them in different places.

Assays:
human NET [1] = biological target: T1, human NET (Homo sapiens, UniProt P23975); conditions: QSAR data matrix; unit inferred; compounds not tested in this paper, source not given, presumably ref Mayer et al., 2019; cited from earlier work
T1 construct: expressed in transfected cells

DAT [2] = biological target: T2, DAT (Homo sapiens, UniProt Q01959); experiment: cell-based
T2 construct: expressed in transfected cells
T2 sequence (Q01959 whole entry): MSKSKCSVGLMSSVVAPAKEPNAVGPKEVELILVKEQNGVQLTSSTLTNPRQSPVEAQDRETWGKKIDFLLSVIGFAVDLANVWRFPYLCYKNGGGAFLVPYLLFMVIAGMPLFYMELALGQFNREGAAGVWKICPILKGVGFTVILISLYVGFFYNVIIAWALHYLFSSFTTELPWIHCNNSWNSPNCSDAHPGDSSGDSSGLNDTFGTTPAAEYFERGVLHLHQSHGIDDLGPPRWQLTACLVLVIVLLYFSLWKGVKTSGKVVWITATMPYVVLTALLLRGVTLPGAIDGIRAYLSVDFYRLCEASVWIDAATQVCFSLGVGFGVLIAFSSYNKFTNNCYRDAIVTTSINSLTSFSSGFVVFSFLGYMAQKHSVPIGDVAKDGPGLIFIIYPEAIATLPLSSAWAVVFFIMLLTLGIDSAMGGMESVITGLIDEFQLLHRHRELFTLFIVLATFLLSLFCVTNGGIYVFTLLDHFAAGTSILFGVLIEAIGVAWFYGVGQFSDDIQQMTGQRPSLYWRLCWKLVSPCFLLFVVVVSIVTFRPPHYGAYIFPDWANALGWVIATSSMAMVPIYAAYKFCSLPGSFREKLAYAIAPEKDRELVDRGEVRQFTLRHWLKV

SERT [3] = biological target: T3, SERT (Homo sapiens, UniProt P31645); experiment: Uptake-inhibition of [3H]5-HT in HEK293 cells stably expressing human SERT; format: cell-based; conditions: QSAR data matrix, from IC50 SERT
T3 construct: expressed in transfected cells
T3 sequence (P31645 whole entry): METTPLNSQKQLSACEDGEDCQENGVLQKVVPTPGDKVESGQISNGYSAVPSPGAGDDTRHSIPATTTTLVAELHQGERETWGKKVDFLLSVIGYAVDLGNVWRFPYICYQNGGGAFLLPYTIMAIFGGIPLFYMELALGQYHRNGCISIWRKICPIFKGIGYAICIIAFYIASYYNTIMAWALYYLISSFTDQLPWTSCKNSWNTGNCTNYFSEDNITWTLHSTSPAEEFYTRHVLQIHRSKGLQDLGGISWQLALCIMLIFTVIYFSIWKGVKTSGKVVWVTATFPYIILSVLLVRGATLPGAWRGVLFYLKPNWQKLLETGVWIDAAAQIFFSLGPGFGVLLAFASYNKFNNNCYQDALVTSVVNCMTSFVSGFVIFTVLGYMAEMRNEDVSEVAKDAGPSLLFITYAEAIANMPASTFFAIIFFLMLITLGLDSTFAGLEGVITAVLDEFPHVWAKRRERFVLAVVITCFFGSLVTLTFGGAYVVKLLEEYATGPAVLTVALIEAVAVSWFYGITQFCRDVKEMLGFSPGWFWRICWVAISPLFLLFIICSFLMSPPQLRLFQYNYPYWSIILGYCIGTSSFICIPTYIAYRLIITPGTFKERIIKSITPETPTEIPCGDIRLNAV

human NET [4] = biological target: T1, human NET; experiment: cell-based
DAT [5] = biological target: T2, DAT; conditions: cited from earlier work
SERT [6] = biological target: T3, SERT; conditions: cited from earlier work
[7] = LC-MS/MS detection of mephedrone metabolites in a human urine sample; format: in vivo; set-up: key to Detected in urine samples: detected (+); not detected (−); conditions: for detection in human urine sample: achiral LC-MS/MS, after enzymatic workup
Source text: The biological specimen, human urine, was provided by the Department of Chemical Analytics, Seibersdorf Laboratories GmbH. The sample was taken from a subject postmortem in a fatal case of drug overdose. […] Given this fact, we assumed that also the metabolites would be detectable in sufficient quantity. To evaluate the presence of any metabolites whatsoever in the urine sample we designed an achiral separation protocol for liquid chromatography and we coupled it with triple quadrupole mass spectrometer. The advantage of LC-MS/MS system is that even if two substances have the same retention time, they can still be differentiated by their fragmentation pattern. More in details, the samples for urine analysis were analyzed using a CTC HTS PAL autosampler (CTC Analytics) and a Thermo Surveyor LC system (Thermo) interfaced to a TSQ Quantum Discovery Max triple quadrupole mass spectrometer (Thermo). A C18 security guard cartridge (4 × 2 mm) (Phenomenex) was used for sample clean-up and the analytical HPLC column was a Kinetex 1.7 μm C18 100Å 150 × 2.1 mm (Phenomenex) and Cortecs T3, 2.7 μm C18 120Å 100 × 2.1 mm (Waters). Column selection was performed by a Maylab Mistraswitch column selector (Maylab Analytical Instruments). The solvents were 0.2% formic acid in water (A) and acetonitrile (B). The temperature of the analytical column was maintained at 40°C. The mass spectrometer was equipped with heated electrospray ionization (ESI) source and was operated in positive ionization mode with a spray voltage set at 4500V. The capillary temperature was adjusted to 320°C. The sheath and auxiliary gas (nitrogen) flow rate was 25 and 10 arbitrary units, respectively. The system was operated in selected […] (srm) mode with argon as the collision gas at a pressure of 1.5 mTorr. For the achiral separation, stem solutions were prepared by weighing the reference substances in volumetric flasks and filling them up with MeOH (99.9%; HPLC grade), creating average concentration of 1 mg/ml. Then dilution solutions were prepared as follows: 10 μL of stem solution was filled up to 5 ml MeOH, creating dilution […]. Samples were prepared from dilution solutions by taking out 25 μL and mixing it together with 25 μL of ISP, 50 μL ISS and filled up to 1 ml with Milli-Q water. The final sample solvent was water/MeOH 9/1. For the enzymatic workup, phosphate buffer (1 ml, 0.8M, pH = 7), β-glucuronidase/arylsulfatase (25 μL) and β-glucuronidase (25 μL) were added to the solutions. The solutions were heated at 50°C during 1 h upon which EtOAc (7 ml) was added. The solution was put into shaker for 10min, following centrifugation for 5 min. The organic phase was separated and evaporated into dryness in stream of pressurized nitrogen. The residue was taken up in 150 μL MQ-water/MeOH 9/1 + 0.4% formic acid, heated at 50°C for 5 min and subjected to LC-MS analysis.
If on one hand the synthesis of putative metabolites allows the establishment of structure activity relationships, on the other hand, it provides pure material to evaluate their presence in human urine samples and determine their pharmacological relevance. To determine the presence of any metabolites in the urine sample, we have designed an achiral separation protocol and coupled the liquid chromatography with triple quadrupole mass spectrometer (LCMS/MS). With the LCMS/MS system two substances with the same retention time, can still be differentiated by their fragmentation pattern. Since metabolites carrying a primary alcohol functionality can form glucuronide and sulfate conjugates, we performed an enzymatic workup of the urine sample in order to cleave them. Apart from the parental drug, we detected 4-OH-MMC and 4-MC (nor-meph) which we have both already identified in our previous publication ([Mayer et al., 2019]), and the two previously uncharacterized metabolites 4-COOH-MC and dihydro-4-MC (Figure 6). […]

[8] = ref Olesti et al., 2019, cited from earlier work
[9] = ref Meyer et al., 2010; cited from earlier work
[10] = cited from earlier work; for relative abundance: minor metabolites in rats, ref Linhart et al., 2016
SERT [11] = biological target: T3, SERT; experiment: Transporter electrophysiology (whole cell patch clamp), HEK293 cells stably expressing SERT; format: cell-based; conditions: compound applied at 30 µM, -60 mV
Experimental: (§1) Human embryonic kidney 293 cells (HEK293 cells) were cultivated in Dulbecco’s Modified Eagle Medium (DMEM), containing 10% heat-in- activated fetal calf serum (FCS), streptomycin (100 μg x 100 ml−1) and penicillin (100 U × 100 ml−1). Geneticin (50 μg x mL−1) was added to select HEK293 cells stably expressing the human isoforms of DAT, NET and SERT as described earlier ([Mayer et al., 2016a]). Cell lines were maintained in a sub-confluent state in humidified atmosphere (37°C, 5% CO2). For uptake inhibition experiments cells expressing the desired transporter were seeded the days before the experiment (40,000 cells per well) or two days before the experiments (20,000 cells per well) onto poly-D-lysine (PDL) coated 96-well plates 24 h prior to the experiment. In the case of transporter-electrophysiology cells were cultivated in 10 cm dishes and 24 h before the experiments they were detached, and seeded at low density onto PDL-coated 3 cm dishes.
(§2) Transporter electrophysiology was conducted by the means of whole cell patch clamp in HEK293 cells stably expressing DAT or SERT. Substrate-induced currents were recorded under voltage clamp (−60 mV). Cells were continuously superfused with a physiological external solution that contains 140 mM NaCl, 2.5 mM CaCl2, 2 mM MgCl2, 20 mM glucose and 10 mM HEPES, pH = 7.4. The pipette solution contained 133 mM potassium gluconate, 6 mM NaCl, 1 mM CaCl2, 0.7 mM MgCl2, 10 mM HEPES, 10 mM EGTA, pH = 7.2. Currents elicited by mephedrone 30 μM, were measured at room temperature (20–24°C) using an […] amplifier and pClamp 11.2 software (MDS Analytical Technologies). All the solutions perfused onto the cell were applied using a DAD-12 superfusion system and a 8-tube perfusion manifold (ALA Scientific Instruments), which allowed for rapid solution exchange. Current traces were filtered at 1 kHz and digitized at 10 kHz using a Digidata 1,550 (MDS Analytical Technologies). […] For the analysis, passive holding currents were subtracted, and the traces were filtered using a 100-Hz digital Gaussian low-pass filter.

DAT [12] = biological target: T2, DAT; experiment: Transporter electrophysiology (whole cell patch clamp), HEK293 cells stably expressing DAT; format: cell-based; conditions: compound applied at 30 µM, -60 mV
Experimental: as §1, §2

SERT [13] = system: SERT; set-up: method as in Gregg et al., 2015; Mayer et al., 2016b; Mayer et al., 2019; conditions: ref Gregg et al., 2015, Mayer et al., 2016b, 2019; cited from earlier work

T1 sequence (P23975 whole entry): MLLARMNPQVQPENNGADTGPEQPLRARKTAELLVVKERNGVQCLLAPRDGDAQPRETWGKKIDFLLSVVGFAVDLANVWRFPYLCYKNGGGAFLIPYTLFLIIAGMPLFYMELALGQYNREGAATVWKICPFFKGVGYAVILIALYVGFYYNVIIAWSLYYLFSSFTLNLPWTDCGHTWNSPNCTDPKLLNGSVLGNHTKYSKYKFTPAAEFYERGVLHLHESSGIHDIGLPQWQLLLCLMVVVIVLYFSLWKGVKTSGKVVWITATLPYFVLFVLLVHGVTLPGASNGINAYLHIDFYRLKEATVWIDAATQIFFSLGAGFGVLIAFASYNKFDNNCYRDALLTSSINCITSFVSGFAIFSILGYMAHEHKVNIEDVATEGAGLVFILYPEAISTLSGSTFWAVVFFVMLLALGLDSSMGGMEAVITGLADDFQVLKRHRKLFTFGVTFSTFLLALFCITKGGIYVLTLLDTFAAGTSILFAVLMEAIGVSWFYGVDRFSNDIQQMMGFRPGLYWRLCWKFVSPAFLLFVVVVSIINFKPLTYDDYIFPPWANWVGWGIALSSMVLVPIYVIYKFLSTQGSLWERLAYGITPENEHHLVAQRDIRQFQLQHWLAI

SMILES: Cc1ccc(C(=O)[C@H](C)N)cc1 [2S-MC, reference compound]
- IC50 (human NET [1]): 3.84 µM
- pIC50 DAT (DAT [2]; QSAR data matrix, from IC50 DAT): 5.06
- pIC50 SERT (SERT [3]): 4.96
- pIC50 NET (human NET [4]; QSAR data matrix, from IC50 NET): 5.42
- IC50 (DAT [5]; QSAR data matrix, unit inferred, compounds not tested in this paper, source not given, presumably ref Mayer et al., 2019, read-out: IC50 DAT): 8.72 µM
- IC50 (SERT [6]; QSAR data matrix, unit inferred, compounds not tested in this paper, source not given, presumably ref Mayer et al., 2019, read-out: IC50 SERT): 10.9 µM

SMILES: Cc1ccc(C(=O)C(C)N)cc1 (centres unmarked) [4-MC, nor-mephedrone, reference compound]
- detection in human urine sample [7]: detected
- plasma level as % of the plasma mephedrone [8]: 25%

SMILES: CC(N)C(=O)c1ccc(CO)cc1 (centres unmarked) [4-OH-MC]
- detection in human urine [9]: not in human urine
- relative abundance [10]: 0.1–0.2%
- detection in rat urine ([10]; ref Meyer et al., 2010): could be detected in rat urine
- detection in human urine sample [7]: not found

SMILES: CNC(C)C(=O)c1ccc(C)cc1 (centres unmarked) [Mephedrone, reference compound]
- SERT-mediated current (SERT [11]): elicited both DAT- and SERT mediated currents
- Selectivity ratio DAT/SERT (DAT [2]): 2.90
- Selectivity ratio NET/DAT (human NET [4]): 1.09
- Detected in urine samples ([7]; human urine, mephedrone user, only syn- and anti-configurations could be separated): +
- DAT-mediated current (DAT [12]): elicited both DAT- and SERT mediated currents
- IC50 (DAT [5]; read-out: IC50 (µM) DAT, mean (95% confidence interval), ref Niello et al. (2019)): 3.01 µM
- plasma concentrations ([8]; conversion of ng h/ml range): 0.090 to 1.25 µM·h
- IC50 (SERT [6]; read-out: IC50 (µM) SERT, mean (95% confidence interval), ref Niello et al. (2019)): 8.74 µM

SMILES: CN[C@@H](C)C(=O)c1ccc(C)cc1 [S-mephedrone, reference compound]
- IC50 (DAT [2]; QSAR data matrix, from IC50 DAT, read-out: pIC50 DAT (converted)): 0.776 µM
- IC50 (SERT [3]; pIC50 SERT): 10.7 µM
- IC50 (human NET [4]): 2.75 µM
- potency as releaser of SERT, times higher than R-mephedrone (SERT [13]): 40 times
- IC50 (SERT [6]; read-out: IC50 SERT, QSAR data matrix, unit inferred, compounds not tested in this paper, source not given, presumably ref Mayer et al., 2019): 10.7 µM

SMILES: CNC(C)C(O)c1ccc(C)cc1 (centres unmarked) [dihydro-4-MMC, dihydro-mephedrone, reference compound]
- detection in human urine sample [7]: did not find
- plasma level as % of the plasma mephedrone [8]: 10%

SMILES: CC(N)C(O)c1ccc(CO)cc1 (centres unmarked) [dihydro-4-OH-MC]
- relative abundance [10]: 0.1–0.2%
- detection in human urine sample [7]: not found
